system: 5-hydroxytryptamine or histamine induced bronchoconstriction; test: Bronchodilation activity: inhibition of 5-hydroxytryptamine or histamine induced bronchoconstriction in the anaesthetised artificially respired guinea-pig (Konzett-Rossler preparation); format: in vivo, guinear-pig; details: Cavia porcellus, iv, 5-hydroxytryptamine or histamine induced bronchoconstriction (Konzett-Rossler)
Text: The compounds were examined for their ability to inhibit 5-hydroxytryptamine or histamine induced bronchoconstriction in the anaesthetised artificially respired guinear-pig (Konzett-Rossler preparation).

Compound	ED50 [mg/kg]
CCCCC(C)C(C)(O)CCn1c(=O)n(C)c(=O)n1CCCCCCCCC(C)O (stereo not shown) [Compound 1, 1-(9'-Hydroxydecyl)-2-(3"-hydroxy-3",4"-dimethyloctyl)-4-methyl-1,2,4-triazolidine-3,5-dione]	0.02
CCCCC(C)C(C)(O)CCn1c(=O)n(C)c(=O)n1C/C=C\CCCCC(C)O (stereo not shown) [Compound 3]	0.0175
CCCCCCC(C)(O)CCn1c(=O)n(C)c(=O)n1CCCCCCCC(C)O (stereo not shown) [Compound 4]	0.0042
CC(O)CCCC/C=C\Cn1c(=O)n(C)c(=O)n1CCC(C)(O)C1CCCCC1 (stereo not shown) [Compound 7]	0.16

Source: US4315941A, “Urazole analogs of prostaglandin derivatives” (Beecham Group Limited, priority 1979, dated 1982)
